Patent publication US20110171261A1, “IMMUNOGENIC COMPOSITION” (priority 2008, published 2011)

Tests used:
[1] = tested on: CD4+CD25+ regulatory T cells; assay: Cell viability of Tregs; type: cell-based, human
CCR4 = biological target: T1, CCR4 (Mus musculus, UniProt P51680); assay: CCR4-mediated migration of mouse cells in vitro; type: cell-based; conditions: data not shown
T1 construct: endogenous in cells
T1 sequence (P51680 1-360): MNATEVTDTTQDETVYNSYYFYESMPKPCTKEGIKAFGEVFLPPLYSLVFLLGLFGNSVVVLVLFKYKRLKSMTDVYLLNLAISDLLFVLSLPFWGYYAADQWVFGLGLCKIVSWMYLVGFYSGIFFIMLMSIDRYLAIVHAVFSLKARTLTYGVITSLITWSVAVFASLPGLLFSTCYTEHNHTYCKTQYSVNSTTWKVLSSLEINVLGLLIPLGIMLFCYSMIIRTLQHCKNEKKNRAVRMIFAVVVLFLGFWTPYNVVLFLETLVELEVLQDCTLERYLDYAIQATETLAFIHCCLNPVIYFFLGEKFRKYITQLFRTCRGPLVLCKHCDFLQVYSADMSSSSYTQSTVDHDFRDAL

[2] = tested on: PPD-reactive IFN-γ-secreting cells; assay: T cell response (IFN-γ ELISPOT and CBA) in mice after MVA85A vaccination; type: in vivo, BALB/c mice; conditions: i.m., MVA85A plus ~2.5 μM antagonist, 6 days post vaccination, splenocytes, 20 μg/ml PPD; for frequency of PPD-reactive IFN-γ-secreting cells (ELISPOT): vs DMSO; for production of IFN-γ in PPD-stimulated cultures (supernatant, CBA): 18 h
CXCR4 = biological target: T2, CXCR4 (Homo sapiens, UniProt P61073); assay: CXCL12-mediated (CXCR4) chemotaxis of CCRF-CEM cells, specificity; type: cell-based; conditions: 3 nM CXCL12; 2 μM CCR4 antagonists (1000 times higher than IC50); n=2
T2 construct: Expression of chemokine receptors CCR4 and CXCR4 by CCRF-CEM cells; endogenous in cells; host or cells: CCRF-CEM
T2 sequence (P61073 whole entry): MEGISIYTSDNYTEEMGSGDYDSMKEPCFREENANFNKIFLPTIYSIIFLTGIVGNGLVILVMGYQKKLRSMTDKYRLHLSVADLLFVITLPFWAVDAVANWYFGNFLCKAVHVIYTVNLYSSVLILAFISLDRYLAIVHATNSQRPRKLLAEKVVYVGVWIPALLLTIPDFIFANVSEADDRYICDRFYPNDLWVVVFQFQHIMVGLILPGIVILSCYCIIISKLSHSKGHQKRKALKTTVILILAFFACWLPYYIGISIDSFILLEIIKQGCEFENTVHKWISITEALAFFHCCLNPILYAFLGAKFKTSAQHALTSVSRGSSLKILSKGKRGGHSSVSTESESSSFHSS
Description: FIG. 2: Assessment of the specificity of CCR4 antagonists. (A) Expression of chemokine receptors CCR4 and CXCR4 by CCRF-CEM cells.
Cell migration was measured by chemotaxis through a 5 μm pore polycarbonate filter in 24-well transwell chambers (Costar, Cambridge, Mass.). Chemokines (R&D systems) were placed in lower chambers in 600 μl RPMI/1% FCS medium and cells were placed in upper chambers in 100 μl medium. After 2 h incubation at 37° C., cells in the lower chamber were recovered and counted with a FACSCalibur (Becton Dickinson, Mountain View, Calif.). Preliminary chemokine titration experiments established optimal doses for chemotaxis: (1) for CCRF-CEM cells, 6 nM CCL22 and 3 nM CCL17 or CXCL12; (2) for Tregs and Th2 cells, 1.2 nM CCL22 or CCL17. To assess CCR4 antagonism, candidate antagonist compounds (10 nM) were mixed directly with chemokines as indicated. Percent inhibition of chemotaxis by CCR4 antagonists was calculated in relation to controls treated with solvent (DMSO) alone as follows: ([no. cells migrated in the presence of DMSO—no. cells migrated in the presence of antagonist]/no. cells migrated in the presence of DMSO)×100. To measure IC50 values, graded doses of antagonists were added to a constant concentration of CCL22.
CCRF-CEM also expresses another chemokine receptor, CXCR4 (FIG. 2A), which allowed the specificity of the CCR4 antagonists to be tested. With the exception of one antagonist, the compounds had no effect on either CXCR4-mediated migration (FIG. 2B) or cell viability (data not shown), even at concentrations 1000 times higher than their IC50 values (˜2 μM)

[3] = tested on: antibody response to the HBsAg; assay: ELISA of sera of mice immunised with HBsAg in SP50 adjuvant at different concentrations (Example 6); type: in vivo, Balb/c mice; conditions: s.c., 0.5 micrograms HBsAg with SP50 at 1 millimolar, 100 micromolar or 10 micromolar, boost day 14, bled 14 days later, all concentrations
Description: FIG. 7: CCR4 antagonist SP50 (Compound VIII—AF-399/42016530—4-(1-benzofuran-2-ylcarbonyl)-1-[5-(benzylsulfanyl)-1,3,4-thiadiazol-2-yl]-3-hydroxy-5-(2-thienyl)-1,5-dihydro-2H-pyrrol-2-one. MW: 531.64. Formula: C26H17N3O4S3) enhances the immunogenicity of a vaccine in vivo. The graph in FIG. 7 depicts the results of an ELISA assay of sera of mice immunised with HBsAg in different concentrations of SP50 adjuvant or of HBsAg in DMSO (negative control) or of HBsAG in the commercially used vaccine composition Engerix™. […] Each line represents the mean of a group of 4 mice.
6 week old female Balb/c mice were used, and immunised with a recombinant Hepatitis B surface antigen (HBsAg) from Biospacific, 598 Horton St no 225, Emeryville Calif. 94608, Catalogue number J44050228 lot number 4475.
Groups of 4 mice were given 0.5 micrograms of HBsAg subcutaneously in 25 microlitres of saline with an equal volume of SP50 at concentrations of 1 millimolar, 100 micromolar or 10 micromolar. Controls received 0.5 micrograms of HBsAg plus 25 microlitres of DMSO (the vehicle used to dissolve the SP50). A second control group received a dose of the alum-adjuvanted commercial Hepatitis B vaccine “Engerix” containing 0.5 micrograms of HBsAg. 14 days later the mice were boosted in an identical fashion and they were bled out a further 14 days later. […]

[4] = tested on: HBsAg specific antibodies; assay: Anti-HBsAg IgG ELISA after rHBsAg vaccination of mice; type: in vivo, BALB/c mice; conditions: 14 days after second vaccination

Row | Structure (SMILES) | effect on cell viability [1] | inhibition of CCR4-mediated migration of mouse cells in vitro (CCR4) | frequency of PPD-reactive IFN-γ-secreting cells (ELISPOT) [2] | production of IFN-γ in PPD-stimulated cultures (supernatant, CBA) [2] | effect on CXCL12-mediated chemotaxis (CXCR4-mediated migration) of CCRF-CEM cells (CXCR4) | antibody response to the HBsAg (ELISA of sera) [3] | IgG subclass of anti-HBsAg IgG response [4] | titer of HBsAg specific antibodies (IgG, ELISA) ([4]; s.c., rHBsAg plus compound (~2.5 μM), vs DMSO)
1 | O=C(C1=C(O)C(=O)N(c2nnc(SCc3ccc(Cl)cc3)s2)C1c1cccs1)c1cc2ccccc2o1 (stereo not shown) [(V)] | None of the compounds affected cell viability | inhibit | significantly enhanced | significantly greater production | do not inhibit | – | – | –
2 | O=C(C1=C(O)C(=O)N(c2nnc(SCc3ccccc3)s2)C1c1cccs1)c1cc2ccccc2o1 (stereo not shown) [compound (VIII), 4-(1-benzofuran-2-ylcarbonyl)-1-[5-(benzylsulfanyl)-1,3,4-thiadiazol-2-yl]-3-hydroxy-5-(2-thienyl)-1,5-dihydro-2H-pyrrol-2-one] | None of the compounds affected cell viability | inhibit | significantly enhanced | significantly greater production | do not inhibit | greater than that to Engerix™ | predominantly of the IgG1 subtype | significantly enhanced the titer of HBsAg specific antibodies to a level similar to that of Engerix-B
3 | CCc1ccc(C2C(C(=O)c3cc4ccccc4o3)=C(O)C(=O)N2c2nnc(SCc3ccccc3F)s2)cc1 (stereo not shown) [(VI)] | None of the compounds affected cell viability | – | – | – | do not inhibit | – | – | –
4 | O=C(CSc1nc(-c2ccccc2)c(-c2ccccc2)o1)Nc1ccc(S(=O)(=O)Nc2nccs2)cc1 [(XI)] | None of the compounds affected cell viability | – | – | – | do not inhibit | – | – | –
5 | O=C(C1=C(O)C(=O)N(c2nnc(SCc3ccccc3Cl)s2)C1c1ccc(Cl)c(Cl)c1)c1cc2ccccc2o1 (stereo not shown) [(III)] | None of the compounds affected cell viability | – | – | – | do not inhibit | – | – | –
